This passage reports IC50, CC50 and inhibition results from ChEMBL document CHEMBL4387790, “Ophiobolin-Type Sesterterpenoids from the Mangrove Endophytic Fungus Aspergillus sp. ZJ-68” (J Nat Prod, 2019).

For orientation: IC50 means the point on the concentration scale where inhibition reaches its midpoint. A word on the CC50: it is the concentration giving 50% cytotoxicity. What is called inhibition is how much of the control response was suppressed.

Series [1] deals with T1, Phosphotyrosine protein phosphatase (Mycobacterium tuberculosis, UniProt A0A045ISB3).
T1 sequence (A0A045ISB3 whole entry): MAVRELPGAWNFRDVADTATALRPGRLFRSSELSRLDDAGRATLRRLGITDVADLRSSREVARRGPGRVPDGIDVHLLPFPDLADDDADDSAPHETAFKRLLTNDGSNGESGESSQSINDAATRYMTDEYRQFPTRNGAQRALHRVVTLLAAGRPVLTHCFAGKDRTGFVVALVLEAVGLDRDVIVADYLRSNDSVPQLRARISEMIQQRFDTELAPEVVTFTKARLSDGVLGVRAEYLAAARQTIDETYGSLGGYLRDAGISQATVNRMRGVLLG
Nature of the series: Inhibition of Mycobacterium tuberculosis H37Ra PTPB expressed in Escherichia coli BL21 (DE3) using p-nitrophenyl phosphate as substrate preincubated for 10 mins followed by substrate addition and measured for 5 mins by spectrophotometric analysis.

A short description of series [2]: Cytotoxicity against mouse RAW264.7 cells assessed as reduction in cell viability by MTT assay. The format is cell-based. A general note: Tetrazolium assays rely on reduction of a dye to a coloured formazan, in cell work by metabolically active cells.
Series [3] deals with RAW264.7. Nature of the series: Anti-inflammatory activity in mouse RAW264.7 cells assessed as inhibition of lipopolysaccharide-induced nitric oxide production incubated for 24 hrs coincubated with LPS by Griess reagent based assay. The following applies: RAW264.7, 24 h. The format is functional, cell-based. A general note: Griess reagent forms a coloured azo dye with nitrite.

The subject of series [4] is RAW264.7. Briefly: Anti-inflammatory activity in mouse RAW264.7 cells assessed as inhibition of lipopolysaccharide-induced nitric oxide production at 50 uM incubated for 24 hrs coincubated with LPS by Griess reagent based assay. The format is functional. The following applies: RAW264.7, 24 h.
In series [5] the target is T1, Phosphotyrosine protein phosphatase. Briefly: Inhibition of Mycobacterium tuberculosis H37Ra PTPB using p-nitrophenyl phosphate as substrate.

With `CC(C)=C/C=C\[C@H](C)[C@H]1CC[C@]2(C)C[C@@H]3C(C)=CC(=O)[C@H]3/C(C=O)=C\C[C@@H]12`, the IC50 in series [1] was over 50 µM. Also, the half-maximal cytotoxic concentration (CC50) in series [2] turned out to be 3.8 µM.

In series [1], `CC(C)=C/C=C\[C@H](C)[C@H]1CC[C@]2(C)C[C@H]3[C@@H](C(=O)C[C@@]3(C)O)/C(C=O)=C\C[C@@H]12` had an IC50 of over 50 µM. For the same molecule, in series [2], the 50% cytotoxic concentration (CC50) came out at 15 µM.

As to `CC(C)=C/C=C\[C@H](C)[C@H]1CC[C@]2(C)CC3=C(C(=O)C[C@H]3C)/C(CO)=C\C[C@@H]12`, the results for the IC50 (in series [1]; in the series on RAW264.7 [3]) were over 50 µM and 14 µM, respectively. The CC50 in series [2] is over 50 µM.

The molecule `CC(C)=C/C=C\[C@H](C)[C@H]1CC[C@]2(C)C[C@H]3[C@H](C(=O)C[C@@]3(C)O)/C(C=O)=C\C[C@@H]12` displayed an IC50 in series [1] of over 50 µM. The CC50 in series [2] is 4.8 µM.

Turning to `CC1=CC(=O)[C@H]2/C(C=O)=C\C[C@H]3[C@@H]([C@@H](C)/C=C\[C@@H](O)C(C)(C)O)CC[C@]3(C)C[C@H]12`, the IC50 (in series [1]; in the series on RAW264.7 [3]) was over 50 µM in each case. Besides, in series [2], the CC50 is over 50 µM.

`CC(C)=C/C=C\[C@H](C)[C@H]1CC[C@]2(C)C[C@@H]3C(C)=CC(=O)[C@H]3/C(CO)=C\C[C@@H]12`: the 50% inhibitory concentration (IC50) amounted to 37 µM in series [1] and 25 µM in the series on RAW264.7 [3]. Also, the CC50 in series [2] was over 50 µM.

For the molecule `CC(C)=C/C=C\[C@H](C)[C@H]1CC[C@]2(C)C[C@H]3[C@@H]4/C(=C\C[C@@H]12)C(=O)O[C@]4(O)C[C@@]3(C)O`, the IC50 is 36 µM in series [1] and over 50 µM in the series on RAW264.7 [3]. In series [2], the CC50 was over 50 µM.

`CC(C)=C/C=C\[C@H](C)[C@H]1CC[C@]2(C)C[C@@H]3C(C)=CC(=O)[C@@H]3/C(C=O)=C\C[C@@H]12` returned an IC50 in series [1] of 24 µM. Besides, the CC50 in series [2] turned out to be 21 µM.

In turn, `CC(C)=C/C=C\[C@H](C)[C@H]1CC[C@]2(C)C[C@H]3[C@H]4/C(=C\C[C@@H]12)C(=O)O[C@H]4C[C@@]3(C)O` showed an IC50 in series [1] of over 50 µM. Besides, in series [2], the cytotoxic concentration (CC50) came out at 29 µM.

In series [1], `CC(C)=C/C=C\[C@H](C)[C@H]1CC[C@]2(C)C[C@H]3[C@@H]4/C(=C\C[C@@H]12)CO[C@]4(O)C[C@@]3(C)O` yielded an IC50 of over 50 µM. For the same molecule, the CC50 in series [2] was 18 µM.

For `CC(C)=C/C=C\[C@H](C)[C@H]1CC[C@]2(C)C[C@@]3(O)[C@H](C)C[C@@H](O)[C@@H]3/C(C=O)=C\C[C@@H]12`, the 50% inhibitory concentration (IC50) (in series [1]; with RAW264.7 [3]) was over 50 µM each time. In series [2], the CC50 is over 50 µM.

On to `CC1=CC(=O)[C@@H]2/C(C=O)=C\C[C@H]3[C@@H]([C@@H](C)/C=C\[C@@H](O)C(C)(C)O)CC[C@]3(C)C[C@H]12`, for which the IC50 (in series [1]; in the series with RAW264.7 [3]) was over 50 µM each time. The 50% cytotoxic concentration (CC50) in series [2] was over 50 µM. Moreover, in the series on RAW264.7 [4], the inhibition at 50 µM is under 40%.

As for `CO[C@]12C[C@@](C)(O)[C@H]3C[C@@]4(C)CC[C@H]([C@@H](C)/C=C\C=C(C)C)/C4=C/C=C(/C(=O)N1)[C@@H]32`, the IC50 (in series [1]; in the series with RAW264.7 [3]) was over 50 µM each time. Also, the CC50 in series [2] is over 50 µM.

With `CC1=CC(=O)[C@@H]2/C(C=O)=C\C[C@H]3[C@@H]([C@@H](C)/C=C\[C@H](O)C(C)(C)O)CC[C@]3(C)C[C@H]12`, the IC50 is 19 µM in series [1] and 21 µM in the series on RAW264.7 [3]. The CC50 in series [2] was over 50 µM.

For `C[C@@H](/C=C\[C@H](O)C(C)(C)O)[C@H]1CC[C@]2(C)C[C@H]3[C@@H](C(=O)C[C@@]3(C)O)/C(C=O)=C\C[C@@H]12`, the values for the concentration for half-maximal inhibition (IC50) (in series [1]; in the series with RAW264.7 [3]) were over 50 µM and 16 µM, respectively. In series [2], the CC50 was over 50 µM.

With `CC1=CC(=O)[C@H]2/C(C=O)=C\C[C@H]3[C@@H]([C@@H](C)/C=C\[C@@H]4OC4(C)C)CC[C@]3(C)C[C@H]12`, the IC50 in series [1] came out at 35 µM; in the series on RAW264.7 [3], 24 µM. Besides, the CC50 in series [2] was over 50 µM.

As to `CC(C)=C/C=C\[C@H](C)[C@H]1CC[C@]2(C)C[C@H]3[C@@H]4/C(=C\C=C\12)C(=O)N[C@@H]4C[C@@]3(C)O`, the IC50 (in series [1]; in the series on RAW264.7 [3]) was over 50 µM throughout. Besides, the CC50 in series [2] is over 50 µM.

Take `CO[C@]12C[C@@](C)(O)[C@H]3C[C@@]4(C)CC[C@H]([C@@H](C)/C=C\C=C(C)C)[C@@H]4C/C=C(/C(=O)N1)[C@@H]32`: the IC50 (in series [1]; in the series on RAW264.7 [3]) was 42 µM each time. The CC50 in series [2] was over 50 µM.

In series [1], `CC(C)=C/C=C\[C@H](C)[C@H]1CC[C@]2(C)C[C@H]3[C@H]4/C(=C\C[C@@H]12)CO[C@@]4(O)C[C@@]3(C)O` returned an IC50 of over 50 µM. Further, the CC50 in series [2] turned out to be 31 µM.

With `CC1=CC(=O)[C@H]2/C(C=O)=C\C[C@H]3[C@@H]([C@@H](C)/C=C\[C@H](O)C(C)(C)O)CC[C@]3(C)C[C@H]12`, the IC50 is over 50 µM in series [1] and 14 µM with RAW264.7 [3]. Moreover, in series [2], the CC50 is over 50 µM.

In the case of `CC(C)=C/C=C\[C@H](C)[C@H]1CC[C@]2(C)C[C@H]3[C@@H]4/C(=C\C=C\12)C(=O)N[C@]4(O)C[C@@]3(C)O`, the results for the concentration for half-maximal inhibition (IC50) (in series [1]; in the series with RAW264.7 [3]) were 39 µM and over 50 µM, respectively. Also, the CC50 in series [2] was over 50 µM.

Regarding `CC(C)=C/C=C\[C@H](C)[C@H]1CC[C@]2(C)C[C@H]3[C@@H](/C(C=O)=C\C[C@@H]12)[C@H](O)C[C@@]3(C)O`, the IC50 in series [1] was over 50 µM; in the series with RAW264.7 [3], 9.6 µM. The CC50 in series [2] was over 50 µM.

For `CC(C)=C/C=C\[C@H](C)[C@H]1CC[C@]2(C)C[C@@H]3C(C)=CC(=O)[C@H]3/C(C(=O)O)=C\C[C@@H]12`, the IC50 in series [1] was 28 µM; with RAW264.7 [3], over 50 µM. The CC50 in series [2] was over 50 µM.

As to `CC(C)[C@H]1CC[C@@]2(C)CC[C@]3(CO)CC4=C(C(=O)O)CC[C@H]4[C@]4(C)C[C@@H]4[C@H]3[C@H]12`, in series [5], the concentration for half-maximal inhibition (IC50) was 2.2 µM.

Take `COc1ccc2c(c1)c(CC(=O)O)c(C)n2C(=O)c1ccc(Cl)cc1` [INDOMETHACIN]: the CC50 in series [2] was over 50 µM. The IC50 in the series on RAW264.7 [3] turned out to be 38 µM.
